Entries after “also recorded” stand apart in the source; their conditions may differ. Where a SMILES comes first, the peptide text is derived from it. The star is where a group is joined. Cbz = O=C(OCc1ccccc1)*
Assays:
Type in all cases: cell-based, human
PCNA = PCNA expression in neutrophils by Western blot; conditions: for Effect of proteasome inhibitors on apoptosis-induced PCNA diminution: neutrophils 15 h at 37° C.
Method: Western blot analysis and co-immunoprecipitation experiments. Neutrophils were sonicated and cytosolic proteins were analyzed using either the PC10 mAb or the Ab5 pAb anti-PCNA according to standard immunoblot procedures (Moriceau et al. 2009, J. Immunol. 182:7254-7263). Co-immunoprecipitation experiments were performed using neutrophil cytosols obtained by cavitation (Witko-Sarsat et al. 1999, Blood 94:2487-2496). Cytosol ([…]) was mixed with […] of protein G and Ab5 pAb and incubated for 30 min at 4° C. under shaking. The sample was loaded onto a column containing Sepharose-coated magnetic beads (Milteny), washed with a stringent washing buffer (50 mM Tris, 500 mM NaCl, 1% NP-40, 0.5% Triton X-100). The column was washed twice with this buffer, twice with the same buffer except that the NaCl was 300 mM and, finally, 5 times with a hyposaline buffer (20 mM Tris pH 7.5). The sample was eluted from the column with […] 5× sample buffer and analyzed by Western blotting using different mAb to potential partners. PCNA was detected on the Western blot with the PC10 mAb and procaspases were detected with either anti-procaspase-8 (Calbiochem) mAb or mouse anti-procaspase-10 (Santa Cruz) or anti-procaspase-9 (Santa Cruz) or anti-procaspase-3 (Santa Cruz) mAbs, followed by horseradish peroxidase-conjugated anti-mouse IgG (Nordic Immunology diluted 1:5000), using the SuperSignal West Pico detection kit (Pierce).

neutrophils [1] = experiment: Neutrophil apoptosis/survival by phosphatidylserine externalization after annexin-V and 7-AAD labeling; conditions: for Effect of proteasome inhibitors on neutrophil death: neutrophils 15 h at 37° C.
Method: Analysis of apoptosis. Neutrophil apoptosis was triggered by incubating neutrophils at 37° C. alone (constitutive apoptosis) or with anti-Fas mAb (10 ng/ml; Beckman-Coulter) or gliotoxin ([…]; Sigma) (Ward et al. 1999, J. Biol. Chem. 274:4309-4318) for the indicated times. Neutrophil apoptosis was evaluated by phosphatidylserine externalization after annexin-V and 7-AAD labeling (Kantari et al. 2007, Blood 110:4086-4095); mitochondrial depolarization after DiOC6 labeling (Moriceau et al. 2009, J. Immuno1.182:7254-7263); caspase-3 and caspase-8 activities measured by spectrophotometry (Biovision) in neutrophil lysates. In DMF-differentiated-PLB985 cells, apoptosis was triggered by gliotoxin or by rTRAIL (10 ng/ml; RD System) (Yin et al. 2005, Int. J. Biochem. Cell Biol. 37:1696-1708) and caspase-8 and caspase-9 activities were determined after gating on CD11b^+ cells using the Caspase-Glow® assay (Promega). Apoptosis-induced chromatin condensation and DNA fragmentation were assessed, respectively, after DNA staining with the blue fluorescent dye Hoechst (5 mg/ml) and propidium-iodide staining (Goepel et al. 2004, J. Leukoc. Biol. 75:836-843). Carboxyp21 ([…], SEQ ID NO: 24) corresponding to the p21 carboxy-terminus sequence (residues 141-160) and containing a RYIRS carboxy-terminal extension to facilitate its cell entry was synthesized and purified (Genecust). A modified peptide in which the charged amino acids responsible for its binding to PCNA have been changed according to dynamic simulation studies ([…], SEQ ID NO: 25) served as control. The effect of PS-341 (LC Laboratories) and MG132 were tested on neutrophil apoptosis and PCNA expression as indicated.

neutrophils [2] = experiment: Neutrophil apoptosis by mitochondrial depolarization after DiOC6 labeling; parameters: dose or concentration left out as unconfirmed; conditions: 6 h at 37° C., peptide
Method: Analysis of apoptosis. Neutrophil apoptosis was triggered by incubating neutrophils at 37° C. alone (constitutive apoptosis) or with anti-Fas mAb (10 ng/ml; Beckman-Coulter) or gliotoxin ([…]; Sigma) (Ward et al. 1999, J. Biol. Chem. 274:4309-4318) for the indicated times. Neutrophil apoptosis was evaluated by phosphatidylserine externalization after annexin-V and 7-AAD labeling (Kantari et al. 2007, Blood 110:4086-4095); mitochondrial depolarization after DiOC6 labeling (Moriceau et al. 2009, J. Immuno1.182:7254-7263); caspase-3 and caspase-8 activities measured by spectrophotometry (Biovision) in neutrophil lysates. In DMF-differentiated-PLB985 cells, apoptosis was triggered by gliotoxin or by rTRAIL (10 ng/ml; RD System) (Yin et al. 2005, Int. J. Biochem. Cell Biol. 37:1696-1708) and caspase-8 and caspase-9 activities were determined after gating on CD11b^+ cells using the Caspase-Glow® assay (Promega). Apoptosis-induced chromatin condensation and DNA fragmentation were assessed, respectively, after DNA staining with the blue fluorescent dye Hoechst (5 mg/ml) and propidium-iodide staining (Goepel et al. 2004, J. Leukoc. Biol. 75:836-843). Carboxyp21 ([…], SEQ ID NO: 24) corresponding to the p21 carboxy-terminus sequence (residues 141-160) and containing a RYIRS carboxy-terminal extension to facilitate its cell entry was synthesized and purified (Genecust). […]

neutrophils [3] = experiment: Effects of the peptides on neutrophil apoptosis (annexin V / 7-AAD flow cytometry); conditions: for Early Apoptosis, Mean / Late Apoptosis, Mean / Total Apoptosis, Mean: peptide concentration = 200 μM, 16 h at 37° C.; for Early Apoptosis, Mean: percentage annexin-V positive and 7-AAD negative; for Late Apoptosis, Mean: percentage annexin-V positive and 7-AAD positive; for Total Apoptosis, Mean: percentage of cells either 7-AAD or annexin-V-positive; for Early Apoptosis / Late Apoptosis / Total Apoptosis: peptide concentration = 500 μM
Method: Effects of the peptides on neutrophil apoptosis. Neutrophils were isolated from the blood of healthy volunteers using polymorphoprep (Witko-Sarsat et al. 1999; Blood 94:2487-96). Physiological apoptosis of these neutrophils was then activated by incubating them at 37° C. during 16 h in RPMI culture medium complemented with 10% serum. Under these conditions, neutrophils undergo a spontaneous apoptosis which can be evaluated by measuring the phosphatidylserine externalization (Kantari et al. 2007; Blood 110:4086-95; Moriceau et al. 2009; J Immunol 182:7254-63). Phosphatidylserine was stained using a fluorochrome-coupled annexin V allowing detection of apoptotic neutrophils by flow cytometry using a Facscan (Beckton Dickinson). Neutrophils stained with annexin V express the phosphatidylserine and are recognized and phagocytosed by macrophages. Furthermore, a secondary staining with the 7AAD intercalating agent was used to indicate late apoptosis (Durant et al. 2004; J Leukocyte Biol 75:87-98). Thus, total apoptosis is measured by the percentage of cells being either 7-AAD or annexin-V-positive (the rest of the cells being considered as viable). Early apoptosis is measured by the percentages of neutrophils being both annexin-V positive and 7-AAD negative. Late apoptosis is measured by the percentages of neutrophils being both annexin-V positive and 7-AAD positive. The necrotic cells being 7AAD positive are excluded from the analysis on the basis of the data of size/granulometry by flow cytometry analysis. […]
The peptides were added to the neutrophil cells and their effect on cell apoptosis was analyzed by measuring the phosphatidylserine externalization. Phosphatidylserine was stained using a fluorochrome-coupled annexin V allowing detection of apoptotic neutrophils by flow cytometry. Neutrophils stained with annexin V express the phosphatidylserine and are recognized and phagocytosed by macrophages. Furthermore, a secondary staining with the 7AAD intercalating agent was used to indicate late apoptosis, allowing distinction between early and late apoptosis.

| Compound | Early Apoptosis, Mean (neutrophils [3]) | Late Apoptosis, Mean (neutrophils [3]) | Total Apoptosis, Mean (neutrophils [3]) | Early Apoptosis (neutrophils [3]; Table VI (peptides 5-9)) | Late Apoptosis (neutrophils [3]; Table VI (peptides 5-9)) | Total Apoptosis (neutrophils [3]; Table VI (peptides 5-9)) | other results |
| --- | --- | --- | --- | --- | --- | --- | --- |
| KRRQTSMTDFYHSKRRLIFSRYIRS [carboxyp21] |  |  |  |  |  |  | PCNA expression in neutrophils exposed to increasing peptide concentrations (PCNA; 3 h, increasing carboxyp21 concentrations): dose-dependent decrease of PCNA expression; Cells with externalized phosphatidylserine after annexin-V labeling (neutrophils [1]; 6 h at 37° C., 50 mM peptide): significantly increased percentage of cells with externalized phosphatidylserine; Effect on G-CSF-induced neutrophil survival (neutrophils [1]; G-CSF 1000 U/ml, carboxyp21 50 μM, 15 h): significantly inhibited G-CSF-induced neutrophil survival; Apoptotic neutrophils as cells with depolarized mitochondria after DiOC6 labeling (neutrophils [2]): triggered neutrophil apoptosis |
| KRRQTGETDFDHAKAALIFSRYIRS [modified carboxy-21 peptide, reference compound] |  |  |  |  |  |  | Apoptotic neutrophils as cells with depolarized mitochondria after DiOC6 labeling (neutrophils [2]): no such activity was observed |
| APNQEKVSDYEMKLMRYIRS [peptide 1] | 62.52 | 11.47 | 73.67 |  |  |  | Early Apoptosis (neutrophils [3]; Table V (peptides 1-4)): 65.06; Late Apoptosis (neutrophils [3]; Table V (peptides 1-4)): 6.62; Total Apoptosis (neutrophils [3]; Table V (peptides 1-4)): 68.74 |
| interferon-g: cytokine that prolongs neutrophil survival |  |  |  |  |  |  | Effect on PCNA degradation in neutrophils (PCNA): prevented PCNA degradation |
| CC(C)C[C@H](NC(=O)[C@H](Cc1ccccc1)NC(=O)c1cnccn1)B(O)O [PS-341, reference compound] |  |  |  |  |  |  | Effect on PCNA degradation after incubation with anti-Fas or gliotoxin (PCNA; 6 h at 37° C., PS-341 (1 mM)): reversed PCNA degradation; Effect of proteasome inhibitors on apoptosis-induced PCNA diminution (PCNA): reversed the apoptosis-induced PCNA diminution; Effect of proteasome inhibitors on neutrophil death (neutrophils [1]): significantly inhibited neutrophil death |
| KDGVKFRYIRS [peptide 5] | 62.44 | 12.36 | 74.36 | 75.21 | 5.39 | 77.67 |  |
| YYLAPKIEDEEGSRYIRS [peptide 8] | 40.67 | 6.23 | 46.43 | 48.94 | 8.99 | 48.77 | Pro- or anti-apoptotic activity on neutrophils, conclusion in words (neutrophils [3]): significant anti-apoptotic activity; also recorded: capable of preventing neutrophil apoptosis |
| YGRKKRRQRRRMKLMDLDVEQLGIPEQEYS [peptide 4] | 62.34 | 27.88 | 89.83 |  |  |  | Pro- or anti-apoptotic activity on neutrophils, conclusion in words (neutrophils [3]): exhibit a pro-apoptotic activity on neutrophils; Effect on annexin V staining (neutrophil apoptosis), in words (neutrophils [3]; 200 μM): induced an increase of the annexin V staining; Pro-apoptotic activity on late apoptosis, in words (neutrophils [3]; 200 μM, Table IV): particularly obvious on late apoptosis; Early Apoptosis (neutrophils [3]; Table V (peptides 1-4)): 53.11; Late Apoptosis (neutrophils [3]; Table V (peptides 1-4)): 33.74; Total Apoptosis (neutrophils [3]; Table V (peptides 1-4)): 82.84 |
| YGRKKRRQRRRYYLAPKIEDEEGS [peptide 9] | 50.03 | 23.90 | 73.43 | 48.44 | 26.32 | 71.84 | Pro- or anti-apoptotic activity on neutrophils, conclusion in words (neutrophils [3]): capable of preventing neutrophil apoptosis |
| YGRKKRRQRRRAPNQEKVSDYEMKLM [peptide 2] | 52.29 | 17.38 | 69.33 |  |  |  | Early Apoptosis (neutrophils [3]; Table V (peptides 1-4)): 46.92; Late Apoptosis (neutrophils [3]; Table V (peptides 1-4)): 23.97; Total Apoptosis (neutrophils [3]; Table V (peptides 1-4)): 68.08 |
| SQTSNVDKEEEAVRYIRS [peptide 6] | 62.91 | 13.11 | 76.02 | 66.43 | 5.2 | 67.42 |  |
| MSADVPLRYIRS [peptide 7] | 62.60 | 12.30 | 74.40 | 66.26 | 2.85 | 64.85 |  |
| CC(C)C[C@@H](C=O)NC(=O)[C@H](CC(C)C)NC(=O)[C@H](CC(C)C)NC(=O)OCc1ccccc1 [MG132, reference compound] (Cbz-Leu-Leu-Leu-aldehyde) |  |  |  |  |  |  | Effect of proteasome inhibitors on apoptosis-induced PCNA diminution (PCNA): reversed the apoptosis-induced PCNA diminution; Effect of proteasome inhibitors on neutrophil death (neutrophils [1]): significantly inhibited neutrophil death |
| MKLMDLDVEQLGIPEQEYSRYIRS [peptide 3] | 63.00 | 13.27 | 76.20 |  |  |  | Pro- or anti-apoptotic activity on neutrophils, conclusion in words (neutrophils [3]): exhibit a pro-apoptotic activity on neutrophils; Effect on annexin V staining (neutrophil apoptosis), in words (neutrophils [3]; 500 μM): induced an increase of the annexin V staining; Early Apoptosis (neutrophils [3]; Table V (peptides 1-4)): 68.05; Late Apoptosis (neutrophils [3]; Table V (peptides 1-4)): 12.63; Total Apoptosis (neutrophils [3]; Table V (peptides 1-4)): 78.56 |

Source: patent US20130059773A1, “COMPOUNDS FOR THE TREATMENT OF INFLAMMATION AND NEUTROPENIA” (priority 2010, published 2013)
